Row | melting point | Compound
1 | 175 to 180 °C | COc1cccc(C2(CC(=O)O)CCCC2C(=O)O)c1 (configuration not stated)
2 | 79 to 82 °C | CN1C2=NC(C)(C)N(C)C(=O)N2c2ccccc21
3 | 209 to 211 °C | Cc1c(N2CCN(Cc3ccccc3)CC2)c(F)cc2c(=O)c(C(=O)O)cn(C3CC3)c12
4 | 120 to 122 °C | CC(=O)NC1CCC2C(C1)c1c(OC(C)=O)cc(OC(C)CCCc3ccccc3)cc1N(C)C2C (configuration not stated)
5 | 127 to 128 °C | CCNc1nc(C#N)c(C#N)nc1-c1cccc(Br)c1
6 | 102 to 103 °C | Clc1ccc(COC(CNc2ccc(Cl)c(Cl)c2)Cn2ccnc2)cc1 (configuration not stated)
7 | 171 to 172 °C | CC[C@H](C)[C@H](NC(=O)[C@H](C)N(C(=O)OC(C)(C)C)C1CCCCC1)C(=O)N[C@@H](Cc1ccc(C(C)(C)C)cc1)[C@@H](O)[C@@H](O)CC(C)C
8 | 195 to 197 °C | CC(=O)c1c(C)[nH]c(-c2cccc(C)c2)c1N
9 | 116 to 118 °C | CC(=O)N1CCc2sc(C)c(C(=O)CCCN3CCC(c4noc5cc(F)ccc45)CC3)c2C1
10 | 137 to 140 °C | C1COC2(OC1)OCCCO2
11 | 228 to 230 °C | Cc1nnc2n1CC(=O)N(C)c1ccc(Cl)cc1-2
12 | 158 to 160 °C | CCn1ncc2c(NCC3CCCCC3)c3cc(Br)ccc3nc21
13 | 244 to 247 °C | Nc1ncnc2c1c(-c1cccc(F)c1)nn2Cc1oc2ccccc2c(=O)c1-c1ccccc1
14 | 93 to 94.5 °C | CCCc1c(OCC(=O)OC)ccc2c1OC(CCCCCCO)CC2=O (configuration not stated)
15 | 245 to 247 °C | FC(F)(F)Oc1ccc(Nc2cc(-c3ccccc3)ncn2)cc1
16 | 77 °C | CCOC(=O)C(C)Oc1ccc(OCc2ccccc2)c(F)c1 (configuration not stated)
17 | 117 to 118 °C | O=C(O)CCCNC(=O)c1ccccc1NC(=O)c1ccccc1Br
18 | 80 to 83 °C | CCc1nc(-c2ccccc2)n(CC(C)(OC)OC)c(=O)c1C
19 | 259 to 263 °C | O=C1CCCC(=O)N1c1cc(Cc2n[nH]c(=O)c3ccccc23)ccc1F
20 | 113 to 114 °C | CCc1cccc(C(C#N)c2nc(OC)cc(OC)n2)c1[N+](=O)[O-] (configuration not stated)
21 | 255 to 256 °C | CC1(C)OCCN1CCNc1ccc(NCCN2CCOC2(C)C)c2c1C(=O)c1c(O)ccc(O)c1C2=O
22 | 157 to 158 °C | O=C(CN1CCN(c2nccs2)CC1)N1CCC(O)(c2cccc(C(F)(F)F)c2)CC1
23 | 260 to 261 °C | COc1ccc(Oc2c(N)cc(C(=O)O)cc2S(N)(=O)=O)cc1

Row | melting point | Compound
24 | 280 °C | Nc1nc(-n2cc(C(=O)O)c(=O)c3cc(F)c(F)c(F)c32)c(F)cc1F
25 | > 300 °C | Cc1cc2c([nH]c1=O)C(=O)c1ccccc1C2=O
26 | 74 to 75 °C | CCC1(C)CC(=O)C(C(=O)Nc2ccc(Cl)c(Cl)c2)C(=O)C1 (configuration not stated)
27 | 114 to 115 °C | Cc1cccc(/C(N)=C2\Sc3ccccc3C2=O)c1
28 | 94 to 95.5 °C | Clc1ccc(COc2ccccc2C(=NOCc2ccccc2)n2ccnc2)cc1
29 | 189 to 190 °C | CCOC(=O)NNc1cc(C)c(-c2cccc(C#N)c2)nn1
30 | 260 to 263 °C | CC(C)C(NC(=O)CCc1cccnc1)C(=O)NC(Cc1ccccc1)C(O)C(O)C(Cc1ccccc1)NC(=O)C(NC(=O)CCc1cccnc1)C(C)C (configuration not stated)
31 | 69 to 71 °C | CC(C)C[C@@H](C(=O)O)N(C)C(=O)OCc1ccccc1
32 | 205 °C | Nc1cc(C(=O)O)cc(N)c1O
33 | 111 °C | COc1ccccc1C1(CC(=O)N2CCN(c3ccncc3)CC2)C(=O)Nc2ccc(Cl)cc21 (configuration not stated)
34 | 108 to 110 °C | CC#CCOc1ccc(S(=O)(=O)NC2(C(=O)O)CCCC2)cc1
35 | 253 to 254 °C | COC(=O)C(=O)Nc1cccc(C(=O)Nc2nnn[nH]2)c1
36 | 257 to 260 °C | CCC[C@H]1C(=O)N(S(=O)(=O)c2ccc3ccccc3c2)[C@H]2CCN(S(C)(=O)=O)[C@H]12 (relative stereo)
37 | 200 to 204 °C | O=C(NCC12CC3CC(CC(C3)C1)C2)c1c(Cl)ccc2nc(N3CCC(O)(C(=O)O)CC3)ccc12
38 | 101 to 103 °C | CCN1CC(C)Oc2cccc3nc4c(c1c23)CCCC4 (configuration not stated)
39 | 82 °C | COC(=O)c1ccc(CCc2ccc(OC)cc2)nc1
40 | 259 to 260 °C | COc1cc2nc(N)nc(-c3cc(I)c(O)c(I)c3)c2cc1OC
41 | 150 °C | CCCCc1noc(-c2ccccc2)c1-c1ccc(S(N)(=O)=O)cc1
42 | 88 to 90 °C | COC(=O)c1ccc(S(C)(=O)=O)nc1OC
43 | 93 to 95 °C | CC12CCCc3c1n(c1ccccc31)C(=O)CC2 (configuration not stated)
44 | 119 to 124 °C | N#CCc1cc(Br)cc(Cc2nc3c(F)c(F)cc(F)c3s2)c1
45 | 115 °C | COc1ccc(C(=O)Nc2ccc3ccc(OC)nc3n2)cc1
46 | 87 to 88 °C | CCNC(=O)/C=C/c1cccc(Cl)c1

Row | melting point | Compound
47 | 243 to 244 °C | O=C(O)C1CCc2[nH]c3cc(Cl)c(Cl)cc3c2C1 (configuration not stated)
48 | 76 to 78 °C | CC(SC#N)C(=O)N(CC(=O)OC(C)(C)C)C1CCCC1 (configuration not stated)
49 | 159 to 162 °C | CC(C)(C)C(=O)Oc1ccc(OC(=O)C(C)(C)C)c(C(=O)O)c1
50 | 158 °C | COc1cc(OC)nc(-n2nc(C)oc2=O)n1
51 | 201 to 204 °C | CC(C)c1nnc(-c2ccc(-c3ccccc3)cc2)n1-c1ccccc1F
52 | 102 to 104 °C | O=C(c1ccc(OCCCl)cc1)N1CCOCC1
53 | 74 to 75 °C | COc1ccc(OCc2ccc(C(=O)c3ccccc3)cc2)cc1OC
54 | 84 to 88 °C | CN1c2cscc2C(=O)N(CCN2CCCCC2)c2ccccc21
55 | 57 to 59 °C | COc1cc(Sc2ccccc2CCl)ccc1Cl
56 | 180 to 181 °C | COc1c(C(=O)O)nc(N2CCCCS2(=O)=O)n(C)c1=O
57 | 102 to 104 °C | Cc1cc(C)c2c(n1)-c1ccccc1C2=O
58 | 169 to 170 °C | Cc1c(F)c(F)c(-n2ncc(C#N)c2N)c(F)c1F
59 | 190 to 196 °C | CCCCOc1ncc(C(C)=O)cc1-c1nn2c(CC)nc(C)c2c(=O)[nH]1
60 | 142 to 143 °C | COc1ccc(C2SC(=O)NC2C(=O)NCCO[N+](=O)[O-])cc1 (configuration not stated)
61 | 190 to 191 °C | CC(=O)NC1=NN(c2ccccc2)CC1
62 | 211 °C | CCc1c(Cc2[nH]c(Cc3[nH]c(C(=O)OCc4ccccc4)c(C)c3CC)c(CC)c2CC)[nH]c(C(=O)OCc2ccccc2)c1C
63 | 186 to 188 °C | NC1CC2c3ccccc3Cc3ccccc3N2C1=O (configuration not stated)
64 | 85 to 89 °C | CCCCCCCCCCCCc1ccccc1C(SC(CC(=O)O)C(=O)O)C(=O)O (configuration not stated)
65 | 155 to 158 °C | COc1ccc(S(=O)(=O)n2ccc3ccnc(N(C)C)c32)cc1
66 | 148 to 154 °C | COc1ccc2[nH]cc(CCCN(CC3CC3)C3COc4c(F)ccc(C(N)=O)c4C3)c2c1 (configuration not stated)
67 | 252 to 254 °C | COc1cc(OC)c2c(=O)[nH]c(-c3ccc(N4CCN(C)CC4)cc3)nc2c1
68 | 90 to 94 °C | Nc1nc(NCc2ccccc2)c2ncn(C3CC(F)C(CO)O3)c2n1 (configuration not stated)
69 | 178 to 179 °C | CC(=O)NS(=O)(=O)c1ccc(C2=C(c3cccc(F)c3)C(=O)C(C)(C)O2)cc1

Row | Compound | melting point
70 | CCCc1nnc2n1-c1ccc(Cl)cc1C(c1ccccc1)=NC2 | 176 °C
71 | C/C(=C\c1ccccc1)CNc1cccc(-c2ccnc3c(C(=O)c4cccs4)cnn23)c1 | 74 to 76 °C
72 | CCN1CCC2(c3cccc(O)c3)Cc3[nH]c(C(=O)Nc4ccccc4)c(C)c3CC2C1 (configuration not stated) | 271 to 272 °C

Source: a melting point compilation (Tetko et al.; mined from patent text by program, amines drawn as free bases though some values may be those of a salt)
